Experimental data as given in publication PMC7244523, “A Cell-based Screen in Actinomyces oris to Identify Sortase Inhibitors” (Scientific Reports, 2020).
≈ marks a conversion by molar mass, not a printed value.

Assays:
[1] = system: A. oris MG-1 (wild-type) versus ΔsrtA/ΔgspA strain; assay: High-throughput cell-based growth screen and counter-screen (differential growth); parameters: species or system Actinomyces oris; settings: differential effect on wild-type MG-1 and ΔgspAΔsrtA strains in the HTS; 10 µM, in duplicate; 100 = extreme difference, 0 = none
Method: In the primary screen, a total of 200,834 small molecules were tested for their ability to impair A. oris MG-1 growth. Cells were added to an optical density (OD600) of 0.01 in media containing 10 µM of each molecule, followed by a 15 hour incubation at 37 °C and end-point OD600 measurement. The growth effect of each molecule was normalized and expressed as a percent growth relative to the DMSO-only control (see Methods). A total of 1,904 molecules were classified as preliminary hits (0.95% of the molecules tested), as they reduced MG-1 growth after 15 hours by at least 34%, or 2.75 standard deviations below the average. The preliminary hits were then subjected to a counter-screen in which their growth effects on ΔsrtA/ΔgspA were determined. In order to eliminate potentially erroneously identified preliminary hits, the counter-screen and preliminary screen was performed in duplicate for the 1,904 preliminary hit molecules. A molecule was deemed as a hit if it caused greater than 15% differential growth effect in duplicate when the MG-1 and ΔsrtA/ΔgspA strains were compared. […] Data is plotted as the percentage of growth inhibition for each molecule (see Methods).
A total of 200,834 small molecule compounds (Molecular Screening Shared Resource, UCLA) were dissolved in 100% Omnisolv methylsulfoxide (MilliporeSigma MX1456P-6) and stored in 384-well polypropylene plates. Actinomyces oris MG-1 and ΔgspAΔsrtA were streaked out on BHI agar plates containing 50 µg/mL kanamycin and grown at 37 °C for 48 hours to allow single colonies to grow. Cultures were started from 2–3 colonies in BHI with 50 µg/mL kanamycin and allowed to grow until an OD600 between 0.1–0.4. Meanwhile, 384-well plates were filled with 25 µL BHI broth with 100 µg mL^−1 kanamycin (columns 1–22) or 200 µg mL^−1 Penicillin G (positive control, columns 23–24). Five hundred nanoliters of small molecules were transferred into the media (columns 3–22) using the Biomex FX^P automated work station with a 384-well pin tool. Precultures were diluted to an OD600 of 0.02 in 1 L BHI broth without antibiotics. Twenty five microliters of cell culture was immediately aliquoted into plates containing 25 µL media, antibiotics, and small-molecules using a Multidrop (Thermo LabSystems), resulting in 50 µg mL^−1 kanamycin and 10 µM small molecules with 1% DMSO or 100 µg mL^−1 Penicillin G. Plates were immediately lidded and placed into a humidified Cytomat 6001 incubator at 37 °C and allowed to grow for 15.5 hours. Following incubation, plates were removed from the Cytomat using a Thermo Spinnaker robotic arm on a rail, de-lidded, and placed into an EnVision high-speed plate reader for optical density measurement at 620 nm.
Raw data obtained from the screen was formatted in-house to upload to the Collaborative Drug Discovery Vault (www.collaborativedrug.com). Individual optical density readings were converted to a percent growth value ([ODsample-ODPositive control]/[ODNegative Control Average- ODPositive control]) and percent growth inhibition (1-percent growth). The Z-factors for the individual molecules were determined. Molecules with a Z-factor less than or equal to -2.75 were considered preliminary hits to advance forward a generous collection of preliminary hit molecules. Five microliters of each of the 1904 preliminary hit molecules were re-arrayed into new 384-well polypropylene plates. Each of the 1904 preliminary hits were assayed against both the MG-1 and ΔgspAΔsrtA strains in duplicate, on two separate days. Percent difference of growth was calculated according to the equation 100–100[(ODMG-1, Sample-ODMG-1, Positive Control)/ODΔgspAΔsrtA, Sample-ODΔgspAΔsrtA, Positive Control)]/[(ODMG-1, Average-ODMG-1, Positive Control)/ODΔgspAΔsrtA, Average-ODΔgspAΔsrtA, Positive Control)]. […] Molecules were ranked according to their relative growth.

A. oris MG-1 = assay: Minimum inhibitory concentration, MG-1 strain; type: cell-based; settings: Actinomyces oris, MG1; BHI, 96-well plates, 18 hours
Method: (§1) Two validation assays were performed for each hit molecule that measured: (i) the minimum inhibitory concentration (MIC) required to prevent growth of the MG-1 and ΔsrtA/ΔgspA strains, and (ii) their in vitro inhibitory activity against the enzymatic activity of the A. oris and S. aureus sortase enzymes. Initially, the selective growth effect originally observed in the HTS that used 384-well plates was more rigorously defined by determining each molecule’s MIC value for the MG-1 and ΔsrtA/ΔgspA strains. Cells were cultured in 100 µL media containing 2-fold dilutions of each small molecule between 320 µM and 0.039 µM (approximately 134 µg mL^−1 to […]).
(§2) Minimum inhibitory concentration (MIC) values were determined for molecules 1–6 according to the Clinical Laboratory Standard Institutes’ (CLSI) Methods for Dilution Antimicrobial Susceptibility Tests for Bacteria that Grow Aerobically, Approved standards-ninth edition; M07-A9 Vol. 32 No. 2 with the following alterations. Overnight cultures of MG-1 and ΔgspAΔsrtA were diluted to OD600 values of 0.01 before being added to BHI containing the appropriate molecule in 96-well plates. Mueller-Hinton broth was not usable because A. oris is a fastidious bacterium. Plates were sealed with Breatheasy seals and incubated for 18 hours, as A. oris has a doubling time of 2 hours. Plate seals were removed and OD600 values measured. Each plate was run with a positive control (cells, media, and Penicillin G), negative control (media and cells only), and contamination control (media only).

A. oris ΔgspAΔsrtA = assay: Minimum inhibitory concentration, ΔgspA/ΔsrtA strain; type: cell-based, Actinomyces oris; settings: BHI, 96-well plates, 18 hours
Method: as §1, §2

AoSrtA = AoSrtA (Actinomyces oris, UniProt A0A0X8K1J2); assay: FRET-based in vitro sortase activity assay, AoSrtA; type: biochemical; settings: for Inhibition of AoSrtA in vitro: FRET assay
Method: (§3) The ability of the hit molecules to inhibit sortase activity was measured in vitro using an established FRET-based assay[13] that measures the ability of each enzyme to cleave a fluorogenic peptide substrate; Abz-LAQTG-Dap(Dnp)-NH2 and Abz-LPETG-Dap(Dnp)-NH2, substrates for ^AoSrtA and ^SaSrtA, respectively. Each enzyme cleaves between the threonine and glycine bond in these peptides, leading to a measurable increase in fluorescence (see Methods). The IC50 value of each compound was determined for both the ^AoSrtA and ^SaSrtA enzymes.
(§4) IC50 values for the six hit molecules against the ^AoSrtA and ^SaSrtA enzymes were determined as previously described, with some modifications. Briefly, molecules 1–6 were serial diluted 2-fold (from 1.25 mM to 2.44 µM, 500 µM to 0.98 µM final assay concentration) into 25 µM ^AoSrtA or ^SaSrtA (final assay concentration 10 µM) in buffer A (20 mM HEPES pH 7, 5 mM CaCl2, 0.05% TWEEN, 30% DMSO). The final DMSO concentration was […] in the assay. Samples were incubated 1 hour at room temperature and aliquoted into a 384-well plate (EK-30892). Thirty microliters of FRET peptide (Peptide 2.0) in buffer B (20 mM HEPES pH 7, 5 mM CaCl2, 0.05% TWEEN), […] for ^SaSrtA or Abz-LAQTG-Dap(Dnp)-NH2 for ^AoSrtA was added and the plate was immediately placed into a Flexstation II plate reader (Molecular Devices) and fluorescence was recorded at 335/420 nm excitation/emission wavelengths after 5 seconds of plate shaking to mix the reaction components. Plate fluorescence was measured over the course of 30 minutes.

SaSrtA = SaSrtA (Staphylococcus aureus, UniProt Q2FV99); assay: FRET-based in vitro sortase activity assay, SaSrtA; type: biochemical
Method: as §3, §4

A. oris ΔgspA = assay: Cell fractionation and immunoblot with α-FimA (type 2 pilus); type: cell-based, Actinomyces oris; settings: 10 µM, 3 hours, ΔgspA strain, versus control
Method: To understand the physiological effects that these molecules have on the display of pili and surface proteins on the surface of A. oris, we grew cells with 10 µM of each hit molecule and assessed sortase activity by western blot and electron microscopy as previously reported. To avoid a confounding problem that inhibiting ^AoSrtA causes cell arrest, we performed the experiments in a mutant devoid of gspA; the aforementioned genetic suppressor of sortase lethality.
(§5) Cell fractionation and Western blotting were followed according to a published protocol. Briefly, the cultures of A. oris strains grown in BHI at 37 °C until OD600 of 0.25 were aliquoted, and bacterial aliquots were treated with 10 µM of individual sortase inhibitors for 3 hours. Bacterial cultures were then normalized to equal OD600, and cells were fractionated into culture medium (S), cell wall (W), and protoplast fractions. Isolated fractions were subjected to protein precipitation by 7.5% trichloroacetic acid, followed by washing with cold acetone, except for the protoplast fractions. Protein samples were dissolved in hot sodium dodecyl sulfate (SDS)-containing sample buffer, separated by 3–12% Tris-glycine gradient gels, and subjected to immunoblotting with specific antisera (α-FimA, 1:10,000 dilution; α-GspA, α-MdbA, α-SrtC2 and α-SrtA, 1:4000 dilution), followed by chemo-luminescence detection.

A. oris ΔlcpA = assay: Cell fractionation and immunoblot with α-GspA (cell wall anchoring of GspA); type: cell-based, Actinomyces oris; settings: 10 µM, ΔlcpA strain; for GspA polymers (immunoblot α-GspA): 3 hours; for GspA display / cell wall associated GspA: Fig. 4B
Method: (§6) To examine if these molecules inhibit cell wall anchoring of surface proteins (e.g. GspA), we similarly treated cells devoid of lcpA, i.e. ΔlcpA, another suppressor of srtA[46]. […] To corroborate these observations, we subjected A. oris cells of ΔgspA and Δlcp strains to 10 μM of each molecule (3, 4 and 6) and studied pilus display with transmission electron microscopy (TEM), whereby A. oris cells were immobilized on nickel grids and stained with 1% uranyl acetate prior to viewing by an electron microscope.
as §5

[2] = system: A. oris ΔgspA and ΔlcpA strains; assay: Pilus display by transmission electron microscopy; type: cell-based, Actinomyces oris; settings: 10 μM; for Pilus assembly at the cell pole (TEM): ΔgspA or ΔlcpA strain, versus untreated control; for Pili display (TEM): ΔgspA strain, Fig. 5A–D
Method: as §6
To observe cell morphology by negative staining, A. oris cells harvested after inhibitor treatment were washed once with PBS and suspended in 0.1 M NaCl. A drop of 7 µL of bacterial suspension was placed onto carbon-coated nickel grids and stained with 1% uranyl acetate. Samples were examined using a JEOL JEM1200.

[3] = IC50 (A. oris), AoSrtA 10 µM, Abz-LAQTG-Dap(Dnp)-NH2, 1 hour preincubation
[4] = IC50 values, range over compounds, range for both AoSrtA and SaSrtA, in µM

Sequence of SaSrtA (Q2FV99 whole entry): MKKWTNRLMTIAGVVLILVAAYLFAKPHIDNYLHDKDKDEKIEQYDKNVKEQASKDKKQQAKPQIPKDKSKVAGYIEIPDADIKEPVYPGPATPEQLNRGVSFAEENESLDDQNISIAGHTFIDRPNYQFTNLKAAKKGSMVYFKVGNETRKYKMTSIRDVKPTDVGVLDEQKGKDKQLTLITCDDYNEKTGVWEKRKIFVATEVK
Sequence of AoSrtA (A0A0X8K1J2 entry or part of it): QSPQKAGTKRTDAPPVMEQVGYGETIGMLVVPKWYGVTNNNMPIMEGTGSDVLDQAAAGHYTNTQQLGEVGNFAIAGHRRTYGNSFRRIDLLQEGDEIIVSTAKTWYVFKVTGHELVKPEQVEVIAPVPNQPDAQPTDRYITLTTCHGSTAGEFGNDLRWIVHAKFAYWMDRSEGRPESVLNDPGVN

SMILES	Differential Growth [1]	MIC (A. oris MG-1)	MIC (ΔgspA/ΔsrtA) (A. oris ΔgspAΔsrtA)	IC50 (AoSrtA; [3])	IC50 (AoSrtA; [4])	IC50 (SaSrtA)	FimA polymers / type 2 pilus production (immunoblot α-FimA) (A. oris ΔgspA)	GspA polymers (immunoblot α-GspA) (A. oris ΔlcpA)	GspA display / cell wall associated GspA (A. oris ΔlcpA)	Pilus assembly at the cell pole (TEM) [2]	Pili display (TEM) [2]	Inhibition of AoSrtA in vitro (AoSrtA)
Cc1nc(COc2ccc(F)cc2)sc1CC(=O)Nc1nc2c(s1)CC(C)CC2 (stereo not drawn) [Compound 6]	71.8 ± 16.5%	2.1 µg/mL (≈ 4.87 µM)	8.4 µg/mL (≈ 19.5 µM)	139 µM	73 to 170 µM	125 µM	little effect on type 2 pilus production	no GspA polymers were observed	significantly diminishes GspA display	significant reduction of pilus assembly at the cell pole	only modestly effects pili display	
COc1ccc2nc(N(Cc3ccccc3)C(=O)c3ccc([N+](=O)[O-])o3)sc2c1 [Compound 4]	38.5 ± 0.5%	16.4 µg/mL (≈ 40.1 µM)	>130 µg/mL	171 µM	73 to 170 µM	488 µM	decreased FimA polymers	no GspA polymers were observed	decreased amounts of cell wall associated GspA	significant reduction of pilus assembly at the cell pole	diminished	
CCc1ccc2nc(N(Cc3cccnc3)C(=O)c3ccc([N+](=O)[O-])o3)sc2c1 [Compound 3]	17.5 ± 3.5%	8.2 µg/mL (≈ 20.1 µM)	>130 µg/mL	73.5 µM	73 to 170 µM	220 µM	decreased FimA polymers	no GspA polymers were observed	decreased amounts of cell wall associated GspA	significant reduction of pilus assembly at the cell pole	completely absent	
Cc1cc(NS(=O)(=O)c2ccc(C(C)(C)C)cc2)n(C2CCS(=O)(=O)C2)n1 (stereo not drawn) [Compound 2]	96.2 ± 0.3%	0.5 µg/mL (≈ 1.21 µM)	2.1 µg/mL (≈ 5.1 µM)	> 486 µM		> 486 µM						failed to inhibit
O=C(c1cc(-c2ccc(F)cc2)n[nH]1)N1CC(c2nc(-c3ccccc3)no2)C1 [Compound 5]	96.2 ± 0.3%	1 µg/mL (≈ 2.57 µM)	2.0 µg/mL (≈ 5.14 µM)	> 488 µM		282 µM						failed to inhibit
Cc1ccc(S(=O)(=O)Cc2nc3cc(-c4ccccc4)sc3c(=O)[nH]2)cc1 [Compound 1]	65.7 ± 0.5%	2 µg/mL (≈ 5.04 µM)	4.0 µg/mL (≈ 10.1 µM)	> 479 µM		202 µM						failed to inhibit
